Experiment [1] deals with Metabotropic glutamate receptor 8 (Homo sapiens) (UniProt O00222). Description: mGlu8 positive allosteric modulator potency, dose response, rat receptor, calcium (AID 743425). To be noted: rat mGlu8, Fluo-4 calcium, glutamate EC20 potentiation.
In experiment [2] the target is Metabotropic glutamate receptor 8 (Rattus norvegicus) (UniProt P70579). The description is as above. Conditions: rat mGlu8, Fluo-4 calcium, glutamate EC20 potentiation; active compounds read high.

The source made the active and inactive calls. How the calls were made is not given here.

Sequence of Metabotropic glutamate receptor 8 (Homo sapiens) (O00222 whole entry, looked up): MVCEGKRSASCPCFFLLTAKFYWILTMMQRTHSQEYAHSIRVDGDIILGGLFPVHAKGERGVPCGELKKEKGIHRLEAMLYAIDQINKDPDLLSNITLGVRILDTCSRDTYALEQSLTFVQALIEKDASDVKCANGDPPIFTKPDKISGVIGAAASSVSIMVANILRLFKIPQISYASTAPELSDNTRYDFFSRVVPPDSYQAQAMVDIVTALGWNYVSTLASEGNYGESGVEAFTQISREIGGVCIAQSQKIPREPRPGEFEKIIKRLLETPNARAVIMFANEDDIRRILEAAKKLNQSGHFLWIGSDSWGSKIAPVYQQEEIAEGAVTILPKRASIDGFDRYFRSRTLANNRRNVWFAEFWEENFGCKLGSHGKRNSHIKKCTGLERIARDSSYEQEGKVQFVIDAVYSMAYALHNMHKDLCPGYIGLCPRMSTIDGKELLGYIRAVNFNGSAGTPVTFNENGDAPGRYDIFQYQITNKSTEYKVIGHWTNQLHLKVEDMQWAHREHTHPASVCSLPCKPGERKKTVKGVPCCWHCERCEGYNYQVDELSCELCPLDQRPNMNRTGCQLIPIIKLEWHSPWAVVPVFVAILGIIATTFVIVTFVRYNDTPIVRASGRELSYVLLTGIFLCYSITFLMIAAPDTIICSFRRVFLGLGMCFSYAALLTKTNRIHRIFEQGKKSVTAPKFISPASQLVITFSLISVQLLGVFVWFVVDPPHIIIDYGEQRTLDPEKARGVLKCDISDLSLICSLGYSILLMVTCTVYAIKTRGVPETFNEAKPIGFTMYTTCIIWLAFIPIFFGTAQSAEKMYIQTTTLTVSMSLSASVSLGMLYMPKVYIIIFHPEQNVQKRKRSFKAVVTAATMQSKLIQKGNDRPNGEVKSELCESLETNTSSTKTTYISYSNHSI
Sequence of Metabotropic glutamate receptor 8 (Rattus norvegicus) (P70579 whole entry, looked up): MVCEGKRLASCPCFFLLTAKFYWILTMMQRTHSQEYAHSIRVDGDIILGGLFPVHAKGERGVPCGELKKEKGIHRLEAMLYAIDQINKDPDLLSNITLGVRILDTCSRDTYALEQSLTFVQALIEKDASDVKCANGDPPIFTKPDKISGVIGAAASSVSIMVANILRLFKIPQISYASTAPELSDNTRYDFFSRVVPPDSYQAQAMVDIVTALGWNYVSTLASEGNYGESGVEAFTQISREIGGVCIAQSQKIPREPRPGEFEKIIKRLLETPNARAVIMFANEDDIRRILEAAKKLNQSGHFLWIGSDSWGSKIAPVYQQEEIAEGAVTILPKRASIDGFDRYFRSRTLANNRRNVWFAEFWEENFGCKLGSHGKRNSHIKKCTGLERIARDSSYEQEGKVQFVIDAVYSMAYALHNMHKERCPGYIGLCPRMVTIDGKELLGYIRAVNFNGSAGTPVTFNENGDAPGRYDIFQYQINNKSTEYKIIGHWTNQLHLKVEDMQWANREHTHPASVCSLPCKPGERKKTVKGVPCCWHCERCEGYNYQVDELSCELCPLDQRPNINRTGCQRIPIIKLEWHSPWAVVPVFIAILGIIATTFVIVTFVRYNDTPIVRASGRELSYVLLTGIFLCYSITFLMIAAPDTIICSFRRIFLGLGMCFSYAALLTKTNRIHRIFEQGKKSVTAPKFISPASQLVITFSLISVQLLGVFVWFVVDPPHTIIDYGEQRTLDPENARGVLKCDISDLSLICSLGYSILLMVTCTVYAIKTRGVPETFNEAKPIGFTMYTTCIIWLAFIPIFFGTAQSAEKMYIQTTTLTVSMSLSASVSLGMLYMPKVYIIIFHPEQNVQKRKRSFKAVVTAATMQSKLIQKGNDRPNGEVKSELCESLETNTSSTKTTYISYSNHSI

As for `CC(=O)Nc1ccc(OCC(=O)c2cc(C)n(-c3ccc(OC(F)F)cc3)c2C)cc1`, in experiment [1], the EC50 is 3.5 µM.

In the case of `CC(=O)Nc1ccc(SCC(=O)c2cc(C)n(-c3cccc(F)c3)c2C)cc1`, the EC50 in experiment [1] is 1.5 µM.

Take `COC(=O)c1ccc(-n2c(C)cc(C(=O)COc3ccc(OC(C)=O)cc3)c2C)cc1`: the EC50 in experiment [1] is 10 µM.

In the case of `CCn1c(C)cc(C(=O)CSc2ccc(NC(C)=O)cc2)c1C`, the EC50 in experiment [1] was 10 µM.

Take `CCOc1ccc(-n2c(C)cc(C(=O)CSc3ccc(OC)cc3)c2C)cc1`: the EC50 in experiment [1] was 3.16 µM.

For `COC(=O)c1ccc(-n2c(C)cc(C(=O)CSc3ccc(N(C)C(C)=O)cc3)c2C)cc1`, the EC50 in experiment [1] was 3.3 µM.

Take `CC(=O)Nc1ccc(SCC(=O)c2cc(C)n(-c3ccccc3F)c2C)cc1`: the concentration giving a half-maximal response (EC50) in experiment [1] was 3.16 µM.

As for `CC(=O)Nc1ccc(SCC(=O)c2cc(C)n(CC3COc4ccccc4O3)c2C)cc1` (stereo not drawn), in experiment [1], the EC50 was 1.14 µM.

As for `COc1ccc(CSCC(=O)c2cc(C)n(-c3ccc(OC(F)F)cc3)c2C)cc1`, the EC50 in experiment [1] is 0.23 µM.

`CC(=O)Nc1ccc(SCC(=O)c2cc(C)n(CC3CCCO3)c2C)cc1` (stereo not drawn): the EC50 in experiment [1] was 3.44 µM.

Consider `CCOc1ccc(-n2c(C)cc(C(=O)CSCc3cccc(C)c3)c2C)cc1`, for which the EC50 in experiment [1] was 3.16 µM.

In the case of `CC(=O)Nc1ccc(SCC(=O)c2cc(C)n(-c3nc(C)cs3)c2C)cc1`, in experiment [1], the EC50 is 10 µM.

Regarding `COc1ccc(SCC(=O)c2cc(C)n(-c3ccc(OC(F)F)cc3)c2C)cc1`, the EC50 in experiment [1] is 3.16 µM.

On to `Cc1ccc(CSCC(=O)c2cc(C)n(-c3ccc(OC(F)F)cc3)c2C)cc1`, for which the EC50 in experiment [1] is 3.16 µM.

With `COC(=O)c1ccc(-n2c(C)cc(C(=O)CNc3ccc(C(=O)O)cc3)c2C)cc1`, in experiment [2], the “% glutamate max” value is “inactive”.

Consider `COC(=O)c1ccc(-n2c(C)cc(C(=O)CSc3ccc(NC(C)=O)cc3)c2C)cc1`, for which the concentration giving a half-maximal response (EC50) in experiment [1] was 0.93 µM.

For `CC(=O)Nc1ccc(SCC(=O)c2cc(C)n(-c3ccc(S(N)(=O)=O)cc3)c2C)cc1`, the EC50 in experiment [1] is 3.16 µM.

Consider `COC(=O)c1ccc(-n2c(C)cc(C(=O)COc3cccc(N(C)C)c3)c2C)cc1`, for which the “% glutamate max” value in experiment [2] was “inactive”.

In the case of `CC(=O)Nc1ccc(SCC(=O)c2cc(C)n(CCc3cccs3)c2C)cc1`, in experiment [1], the EC50 was 1.6 µM.

For the compound `COC(=O)c1ccc(-n2c(C)cc(C(=O)CSCc3ccc(OC)cc3)c2C)cc1`, the concentration for a half-maximal effect (EC50) in experiment [1] was 1.6 µM.

With `COC(=O)c1ccc(-n2c(C)cc(C(=O)CSCc3cccc(C)c3)c2C)cc1`, in experiment [1], the concentration for a half-maximal effect (EC50) was 3.16 µM.

Consider `CCOc1ccc(-n2c(C)cc(C(=O)CSCc3ccc(OC)cc3)c2C)cc1`, for which, in experiment [1], the EC50 was 3.16 µM.

Regarding `COC(=O)c1ccc(-n2c(C)cc(C(=O)COc3ccc(NC(C)=O)cc3)c2C)cc1`, the EC50 in experiment [1] is 3.4 µM.

These data come from PubChem BioAssay AID743425 (Vanderbilt Specialized Chemistry Center, 2014).
